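Dose response: 5 concentrations. Exposure: 48 h. Format: 96-well plates. Endpoint: linear interpolation; highest concentration if not reached. Here, GI50 denotes the concentration required for 50% inhibition of growth.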 Active and inactive are the calls of the source. No stated cut-off is given here; in the data, active = GI50 up to about 1.1 µM and inactive = higher.
Experiments:
Test in all cases: NCI tumour cell line growth inhibition, 48 h
Hs-578T = test system: Hs-578T
MDA-MB-231 = test system: MDA-MB-231
MDA-N = test system: MDA-N
PC-3 = test system: PC-3
SR = test system: SR
T47D = test system: T47D
LXFL 529 = test system: LXFL 529
RXF 631 = test system: RXF 631

Measured: GI50

CCOC(=O)C(NC(C)=O)(Nc1ccc(F)cc1)C(F)(F)F (stereo unspecified)
inactive: Hs-578T > 100 µM | MDA-MB-231 > 100 µM | MDA-N 4.75 µM | PC-3 > 100 µM | SR 24.8 µM | T47D 23.2 µM

COc1cc2c(cc1OC)C1Cc3sccc3CN1CC2 (stereo unspecified)
inactive: LXFL 529 > 100 µM | RXF 631 > 100 µM | SR 88.9 µM

O=C1C(Cl)N(c2ccc(Cl)cc2Cl)C1c1c[nH]c2ccccc12 (stereo unspecified)
inactive: LXFL 529 > 100 µM | SR 59.8 µM

CC1(C23CC4CC(CC(C4)C2)C3)n2c(=O)n(-c3ccccc3)c(=O)n2C1(C)C12CC3CC(CC(C3)C1)C2 (stereo unspecified)
inactive: Hs-578T 18.8 µM | MDA-MB-231 > 100 µM | MDA-N > 100 µM | PC-3 > 100 µM | SR > 100 µM | T47D > 100 µM

O=C(O)CN(CC(=O)O)C1CCCCC1N(CC(=O)O)CC(=O)NCCN=C=S (stereo unspecified)
inactive: Hs-578T > 100 µM | MDA-MB-231 > 100 µM | MDA-N > 100 µM | PC-3 > 100 µM | T47D > 100 µM

O=c1c(Cc2ccc(Cc3c(O)oc4ccccc4c3=O)cc2)c(O)oc2ccccc12
inactive: Hs-578T > 100 µM | MDA-MB-231 > 100 µM | MDA-N > 100 µM | PC-3 > 100 µM | SR > 100 µM | T47D > 100 µM

CC(C)(C)C1(c2ccc(C3(c4ccccc4)Oc4ccccc4S3)[nH]2)Oc2ccccc2S1 (stereo unspecified)
inactive: LXFL 529 > 100 µM | RXF 631 > 100 µM

NC(=O)CCC(N=C(N)c1csc(C2OC(CO)C(O)C2O)n1)C(=O)O (stereo unspecified)
inactive: LXFL 529 > 100 µM

Source: ChEMBL document CHEMBL1201862, “PubChem BioAssay data set” (2004)
